Entries after “also recorded” stand apart in the source; their conditions may differ. Like-named read-outs stand apart in the source and are kept apart here. Non-standard residues stand in square brackets, D forms with d. Residues, ends and D or L forms follow the SMILES beside them. *: point of attachment. AMC = Cc1cc(=O)oc2cc(N*)ccc12; pGlu = O=C1CC[C@@H](C(=O)O)N1
Key:
[1] = target: T1, TRH receptors in rat pituitary tissue (Rattus norvegicus, UniProt Q01717); settings: cited from earlier work
T1 construct: host or cells: rat pituitary tissue
T1 sequence (Q01717 1-412): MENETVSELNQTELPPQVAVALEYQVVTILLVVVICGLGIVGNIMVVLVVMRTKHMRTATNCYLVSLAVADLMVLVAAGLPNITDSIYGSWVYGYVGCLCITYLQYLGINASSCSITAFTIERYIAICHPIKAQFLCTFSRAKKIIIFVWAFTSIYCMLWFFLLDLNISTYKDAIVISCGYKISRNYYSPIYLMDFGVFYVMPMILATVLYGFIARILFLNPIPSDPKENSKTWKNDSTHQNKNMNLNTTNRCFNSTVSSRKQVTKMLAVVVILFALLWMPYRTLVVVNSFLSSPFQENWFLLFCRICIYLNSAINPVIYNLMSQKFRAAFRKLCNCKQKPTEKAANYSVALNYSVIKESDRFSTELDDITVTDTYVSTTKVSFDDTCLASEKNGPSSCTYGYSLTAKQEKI

[2] = target: T2, TRHR1 (GH4 pituitary cell line, naturally expresses TRHR1) (Rattus norvegicus, UniProt Q01717); assay: Displacement of [3H][3-Me-His2]TRH, GH4 cell membranes; assay type: binding; settings: N = 2; read-out: IC50, displacement of [^3H][3-Me-His^2]TRH, GH4 cell membranes
T2 construct: a GH4 pituitary cell line, which naturally expresses TRHR1; endogenous in cells; host or cells: GH4 pituitary cell membranes
T2 sequence (Q01717 1-412): T1 sequence (Q01717 1-412)

TRHR2 = target: T3, TRHR2 (Rattus norvegicus, UniProt A6IZR3); settings: Scalabrino 2007, Hogan 2008; cited from earlier work
T3 construct: host or cells: CHO cells expressing TRHR2
T3 sequence (A6IZR3 1-352): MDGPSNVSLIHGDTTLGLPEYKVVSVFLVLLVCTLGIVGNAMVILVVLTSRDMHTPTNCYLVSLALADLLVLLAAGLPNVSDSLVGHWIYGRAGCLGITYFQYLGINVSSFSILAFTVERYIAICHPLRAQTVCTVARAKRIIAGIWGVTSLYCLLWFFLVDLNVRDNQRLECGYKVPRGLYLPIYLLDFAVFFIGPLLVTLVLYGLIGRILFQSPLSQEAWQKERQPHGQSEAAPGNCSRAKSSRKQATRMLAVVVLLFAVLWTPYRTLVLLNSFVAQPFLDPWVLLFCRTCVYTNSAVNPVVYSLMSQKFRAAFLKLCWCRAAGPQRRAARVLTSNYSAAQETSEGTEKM

TRHR1 [3] = settings: Scalabrino 2007, Hogan 2008; cited from earlier work
[4] = target: T2, TRHR1 (GH4 pituitary cell line, naturally expresses TRHR1); settings: Scalabrino 2007, Hogan 2008; cited from earlier work
[5] = target: T4, TRH receptors in human pituitary tissue (Homo sapiens, UniProt P34981); assay: Competition binding with [3H][3-Me-His2]TRH, human pituitary tissue membranes
T4 construct: from tissue; host or cells: human pituitary membranes from individual donors
T4 sequence (P34981 1-398): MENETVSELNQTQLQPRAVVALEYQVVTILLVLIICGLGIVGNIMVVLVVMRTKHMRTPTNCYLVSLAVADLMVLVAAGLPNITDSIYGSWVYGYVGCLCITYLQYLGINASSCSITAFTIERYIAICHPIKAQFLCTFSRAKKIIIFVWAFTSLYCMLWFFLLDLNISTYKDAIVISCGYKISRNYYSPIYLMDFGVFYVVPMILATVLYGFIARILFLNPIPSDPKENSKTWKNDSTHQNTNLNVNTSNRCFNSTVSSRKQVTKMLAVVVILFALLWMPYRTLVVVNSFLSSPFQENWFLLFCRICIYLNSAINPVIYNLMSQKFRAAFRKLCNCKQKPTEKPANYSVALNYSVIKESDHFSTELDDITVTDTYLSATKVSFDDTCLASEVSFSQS
Procedure: To investigate the binding of Glp-Asn-Pro-D-Tyr-D-TrpNH2 in human tissue, radioligand binding studies were carried out employing [^3H][3-Me-His^2]TRH to label TRH receptors in cortical, hippocampal, spinal cord and pituitary tissue membranes from human tissue.
(§1) Competition binding assays using human tissue prepared from individual donors with no history of neurological disease were carried out essentially as previously described (Kelly et al., 2002; Scalabrino et al., 2007; Hogan et al., 2008) by incubating membrane suspension, [^3H][3-Me-His^2]TRH, and increasing concentrations of peptide for 5 h at 4° C. Non-specific binding (NSB) was determined in the presence of 10 μM TRH. Separation of bound and free ligand was achieved by vacuum filtration through GF/C or GF/B filters, followed by washing with 3×5 ml of ice-cold NaCl or Tris-HCl buffer. The radioactivity retained on the filters was measured by liquid scintillation counting.

[6] = test system: TRH receptors in human CNS tissue (cortical, hippocampal, spinal cord); assay: Competition binding with [3H][3-Me-His2]TRH, human CNS tissue membranes; settings: for IC50: 5 h at 4° C.
Procedure: as §1, with “Hogan et al., 2008) by incubating membrane suspension, [^3H][3-Me-His^2]TRH, and increasing concentrations of peptide for 5 h at 4° C. Non-specific binding (NSB) was determined in the presence of 10 μM TRH.” left out

[7] = test system: [^3H][3-Me-His^2]TRH-labelled native TRH receptors in rat hippocampal membranes; settings: Scalabrino 2007, Hogan 2008; cited from earlier work
[8] = target: [^3H][3-Me-His^2]TRH-labelled native TRH receptors in rat cortical membranes; assay: Displacement of [3H][3-Me-His2]TRH, native rat cortical membranes; assay type: binding; settings: native rat tissue; N = 3-6
[9] = target: [^3H][3-Me-His^2]TRH-labelled native TRH receptors in rat hippocampal membranes; assay: Displacement of [3H][3-Me-His2]TRH, native rat hippocampal membranes; assay type: binding; settings: native rat tissue; N = 3-6
[10] = test system: [^3H][3-Me-His^2]TRH-labelled native TRH receptors in rat cortical membranes; settings: cited from earlier work
TRHR1 [11] = assay: Displacement of [3H][3-Me-His2]TRH, membranes from CHO cells transfected with TRHR1; assay type: binding; settings: N = 2; read-out: IC50, displacement of [^3H][3-Me-His^2]TRH, membranes from Chinese Hamster Ovary cells transfected with TRHR1
[12] = target: TRH receptors in human amygdala; settings: saturable binding; prior studies; read-out: Kd of radioligand binding in human amygdala; cited from earlier work
[13] = human CNS tissue, read-out: IC50, displacement of [^3H][3-Me-His^2]TRH from CNS tissue

For `NC(=O)C[C@H](NC(=O)[C@@H]1CCC(=O)N1)C(=O)N1CCC[C@H]1C(=O)N[C@H](Cc1ccc(O)cc1)C(=O)N[C@H](Cc1c[nH]c2ccccc12)C(N)=O` [Glp-Asn-Pro-D-Tyr-D-TrpNH2] ([pGlu]NP[dY][dW]-NH2), the “displacement of [^3H][3-Me-His^2]TRH binding from native rat pituitary tissue (in words)” value ([1]; Scalabrino 2007, Hogan 2008) is listed as “does not displace”, the IC50 [2] is listed as over 100000 nM and the “displacement of [^3H][3-Me-His^2]TRH binding from CHO-TRHR2 membranes (in words)” value (TRHR2) is listed as “does not displace”. For the same molecule, the “displacement of [^3H][3-Me-His^2]TRH binding from CHO-TRHR1 membranes (in words)” value (TRHR1 [3]) was “does not displace”, the “displacement of [^3H][3-Me-His^2]TRH binding from GH4 membranes (in words)” value [4] was “does not displace” and the “binding to TRH receptors in human pituitary (in words)” value ([5]; human pituitary) was “not pituitary”. The “displacement of [^3H][3-Me-His^2]TRH binding from human pituitary (in words)” value ([5]; human pituitary membranes) was “does not displace; also recorded: did not displace”, the “displacement of [^3H][3-Me-His^2]TRH binding from human CNS tissue (in words)” value ([6]; human CNS tissue) was “found to displace” and the IC50 [6, 13] was about 100 nM. The “binding to TRH receptors in human brain and spinal cord (in words)” value ([6]; human brain and spinal cord) was “binds”, the IC50 ([6]; human hippocampal membranes, read-out: IC50, displacement of [^3H][3-Me-His^2]TRH from hippocampal membranes) was about 10 nM and the “affinity for [^3H][3-Me-His^2]TRH-labelled native TRH receptors, rat hippocampal tissue homogenate (in words)” value [7] was “high affinity”. For the same molecule, the Ki [8] was 6.8 nM, the Ki [9] was 11 nM and the “affinity for [^3H][3-Me-His^2]TRH-labelled native TRH receptors, rat cortical tissue homogenate (in words)” value ([10]; Scalabrino 2007, Hogan 2008) was “high affinity”. The IC50 (TRHR1 [11]) was over 100000 nM.
`Cc1cc(=O)oc2cc(NC(=O)[C@@H](Cc3c[nH]c4ccccc34)NC(=O)[C@@H](Cc3ccc(O)cc3)NC(=O)[C@@H]3CCCN3C(=O)[C@H](CC(N)=O)NC(=O)[C@@H]3CCC(=O)N3)ccc12` [Glp-Asn-Pro-DTyr-DTrp-AMC] ([pGlu]NP[dY][dW]-{AMC}) showed an IC50 [2] of over 100000 nM, a Ki [8] of 1.7 nM and a Ki [9] of 22 nM.
`Cc1cc(=O)oc2cc(NC(=O)[C@@H](Cc3c[nH]c4ccccc34)NC(=O)[C@@H](Cc3c[nH]c4ccccc34)NC(=O)[C@@H](Cc3ccc(O)cc3)NC(=O)[C@@H]3CCCN3C(=O)[C@H](CC(N)=O)NC(=O)[C@@H]3CCC(=O)N3)ccc12` [Glp-Asn-Pro-DTyr-DTrp-DTrp-AMC] ([pGlu]NP[dY][dW][dW]-{AMC}) gave an IC50 [2] of over 100000 nM, a Ki [8] of 25 nM and a Ki [9] of 30 nM.
`Cc1cc(=O)oc2cc(NC(=O)[C@H](Cc3c[nH]c4ccccc34)NC(=O)[C@H](Cc3ccc(O)cc3)NC(=O)[C@@H]3CCCN3C(=O)[C@H](CC(N)=O)NC(=O)[C@@H]3CCC(=O)N3)ccc12` [Glp-Asn-Pro-LTyr-LTrp-AMC] ([pGlu]NPYW-{AMC}) gave an IC50 [2] of over 100000 nM, a Ki [8] of 330 nM and a Ki [9] of 80 nM.
`Cc1cc(=O)oc2cc(NC(=O)[C@H](Cc3c[nH]c4ccccc34)NC(=O)[C@H](Cc3c[nH]c4ccccc34)NC(=O)[C@H](Cc3ccc(O)cc3)NC(=O)[C@@H]3CCCN3C(=O)[C@H](CC(N)=O)NC(=O)[C@@H]3CCC(=O)N3)ccc12` [Glp-Asn-Pro-LTyr-LTrp-LTrp-AMC] ([pGlu]NPYWW-{AMC}) showed an IC50 [2] of over 100000 nM and a Ki [9] of 8.8 nM.
In the case of `NC(=O)C[C@H](NC(=O)[C@@H]1CCC(=O)N1)C(=O)N1CCC[C@H]1C(=O)N[C@@H](Cc1ccc(O)cc1)C(=O)N[C@@H](Cc1c[nH]c2ccccc12)C(N)=O` [Glp-Asn-Pro-LTyr-LTrp-NH2] ([pGlu]NPYW-NH2), the IC50 [2] is reported as over 100000 nM, the Ki [8] is reported as 110 nM and the Ki [9] is reported as 120 nM. For the same molecule, the IC50 (TRHR1 [11]) was over 100000 nM.
In the case of `NC(=O)[C@@H]1CCCN1C(=O)[C@H](Cc1cnc[nH]1)NC(=O)[C@@H]1CCC(=O)N1` [TRH, Thyrotropin releasing hormone, reference compound], the IC50 ([5]; human pituitary, 5 h at 4° C., read-out: IC50, displacement of [^3H][3-Me-His^2]TRH from pituitary tissue) is listed as about 10 nM, the IC50 [6, 13] is listed as about 10 nM and the Ki ([10]; prior studies, read-out: Ki, competition for [^3H][3-Me-His^2]TRH sites on rat brain cortical membranes) is listed as about 25 nM.
`Cn1cnc(C[C@H](NC(=O)[C@@H]2CCC(=O)N2)C(=O)N2CCC[C@H]2C(N)=O)c1` [[3-Me-His2]TRH, reference compound] showed an IC50 [2] of 11.2 nM, a Ki [8] of 74 nM and a Ki [9] of 34 nM. It also gave an IC50 (TRHR1 [11]) of 17.5 nM.
In the case of [^3H][3-Me-His^2]TRH, the Kd ([1]; single population of high-affinity sites, prior studies, read-out: Kd of radioligand binding, rat pituitary tissue) is given as 2.2 nM, the Kd [12] is given as 7 to 10 nM and the Kd ([10]; single population of high affinity sites, prior studies, read-out: Kd of radioligand binding, rat brain cortical membranes) is given as about 5 nM.
